We go through eight molecules from patent US7427625B2, “Substituted thiatriazaacenaphthylene-6-carbonitrile kinase inhibitors” (Janssen Pharmaceutica, N.V., priority 2006, dated 2008).

Assay [1] deals with T1, VEGF-R2 (Rattus norvegicus, UniProt O08775).
T1 construct: polyhistidine (N)
Description: VEGF-R2 Screening Assay. Type of assay: biochemical. The conditions noted are these: for inhibition at 1 µM: test concentration of 1 μM, read-out: VEGF-R2 percent inhibition. The method, then: (§1) A kinase reaction mixture was prepared containing 50 mM Tris-HCl at pH 8, 10 mM, MgCl20.1 mM […], 1 mM DTT, 10 μM ATP, 0.025 μM biotinylated histone-H1 peptide substrate and 0.2 μCuries per well ^33P-γ-ATP (2000-3000 Ci/mmol). 70 μL of the kinase reaction mixture was dispensed into the well of a Streptavidin FlashPlate.
(§2) Test compound stock in 100% DMSO (1 μL) was added to the wells resulting in a final concentration of 1% DMSO in the reaction with a 100 μL final reaction volume. Each enzyme was diluted in 50 mM Tris-HCl pH=8.0, 0.1% BSA and 30 μL was added to each well to initiate the reaction. The reaction was incubated for one hour at 30° C. At the end of the 1 hr incubation, the reaction was terminated by aspirating the mixture from the plate and washing the wells twice with PBS containing 100 mM EDTA. The biotinylated peptide substrate became immobilized on the Flashplate^198 and the incorporation of ^33P-γ-ATP was measured by reading the plate on a scintillation counter. Inhibition of the enzymatic activity was measured by observing a reduced amount of ^33P-γ-ATP incorporated into the immobilized peptide.
The VEGF-R2 enzyme is a fusion protein containing a polyhistidine tag at the N terminus followed by amino acids 786 to 1343 of the rat VEGF-R2 kinase domain (Accession number U93306). The assay used 150 ng of the N-terminal biotinylated peptide biotin-KHKKLAEGSAYEEV-amide (VEGF-R2) per well.
(§3) The IC50 was derived according to the procedure described in Example 2. For those compounds without an IC50, the percent inhibition results are shown at a test concentration of 1 μM.

Assay [2] has as its target T2, HER-2 (Homo sapiens, UniProt P04626).
T2 construct: the nucleotides encoding amino acids 679 to 1255 of HER-2; purchased Proqinase (Freiburg, Germany)
Description: HER-2 Kinase Assay. It is filed as biochemical. The conditions noted are these: for inhibition at 1 µM: test concentration of 1 μM, read-out: HER-2 percent inhibition. The protocol: HER-2 kinase was purified at Proqinase (Freiburg, Germany) from a construct that consisted of a fusion of GST (Glutathione-S-Transferase), HIS6-Thrombin and the nucleotides encoding amino acids 679 to 1255 of HER-2.
A mixture of a 10× kinase reaction buffer (600 mM Hepes at pH 7.5, 30 mM Magnesium Chloride, 0.03 mM Sodium Vanadate and 500 μg/mL PEG 20,000), DTT (1.2 mM final from a 10 mM stock), ATP (1 μM from a 10 mM stock), biotinylated polyGluTyr (1.5 ng/μL final from stock of 1 μg/μL prepared by Upstate Biotechnologies, Lake Placid, N.Y.), Manganese Chloride (3 mM final from a 1 M stock), γ-^33P-ATP (10 μCi/μL stock) and water (70 μL/well) was added to each well of a Streptavidin Flashplate (Cat. #SMP103, NEN, Boston, Mass.).
Test compound stock (1 μL) was added to the appropriate wells. Diluted GSTHER2 kinase (6.7 ng/μL diluted into 50 mM Tris-HCl at pH 8.0 and 0.1% bovine serum albumin) (30 μL) was added (total volume of 200 ng/well) to initiate the reactions.
The reaction plates were incubated at 30° C. for 1 hr. The reaction was terminated by aspiring the reaction mixture from the plate wells and washing the wells three times with a 1×PBS stop buffer (300 μL) and 100 mM EDTA. After the final wash, the same stop buffer (200 μL) was again added to the wells. The plates were then sealed and read on the TopCount scintillation counter.
as §3

In assay [3] the target is T3, EGFR (Homo sapiens, UniProt P00533).
T3 construct: The intracellular portion of EGFR started at nucleotide 2189 (corresponding to amino acid 667) and ended at the termination codon; made in house; host or cells: Sf9 insect cells (baculovirus)
The assay can be described thus: EGFR Kinase Assay. The note with it: for inhibition at 2 µM: test concentration of 2 μM, read-out: EGFR percent inhibition. Type of assay: biochemical. An excerpt: The EGFR kinase used was a fusion of Glutathione-S-Transferase (GST) and a PCR amplified intracellular portion of EGFR (NM_005228). The intracellular portion of EGFR started at nucleotide 2189 (corresponding to amino acid 667) and ended at the termination codon. The portion was PCR amplified with primers that added the lambda attB sequences to each end, recombined into an entry vector, then into a GST destination vector (as described in Gateway Technologies Manual by Invitrogen Corporation, Carlsbad, Calif.).
The destination vector was recombined in the DH10BAC strain of bacteria to produce a bacmid. The bacmid was transfected into Sf 9 cells and the supernatant containing the baculovirus was collected. The GSTEGFR protein was purified using large cultures of Sf 9 cells infected with stock virus. After an appropriate period of time, the cells were collected and lysed. The GSTEGFR was then purified from the lysate on Glutathione-Sepharose columns (as described by Amersham Biosciences, Buckinghamshire, United Kingdom).
The EGFR substrate was prepared by biotinylating polyGluTyr (128 mg) (Sigma, St. Louis, Mo.) in a 1×PBS buffer incubated together with a 12-fold molar excess of Sulfo-NHS-LC-Biotin on ice for at least 2 hrs. The free biotin was separated from the biotinylated polyGluTyr on a gel filtration column.
A mixture of a 10× kinase buffer (500 mM Tris at pH 8.0, 100 mM Magnesium Chloride and 1 mM Sodium Vanadate), DTT (1 mM final from 500 mM stock), ATP (5 μM final from 10 mM stock), biotinylated polyGluTyr (10 μg/μL stock), γ-^33P ATP (10 μCi/μL stock) and water was added to each well (90 μL/well) of a Streptavidin Flashplate (Perkin Elmer, Wellesley, Mass.).
Test compound in 100% DMSO (2 μL) was added to the appropriate wells. Diluted GSTEGFR (1:300 dilution in 50 mM Tris at pH 8.0 and 0.1% bovine serum albumin) (10 μL) was added to the wells to initiate the reactions.
The plates were incubated at 30° C. for 1 hr with shaking. The reacted contents were removed and the plates were sequentially washed three times with a 1×PBS stop buffer (300 μL without Magnesium and Calcium) and 100 mM EDTA. After the final wash, the same stop buffer (200 μL) was added to the wells. The plates were then sealed and read on the TopCount scintillation counter.
Test compounds were assayed in triplicate at 16 concentrations at half-log dilutions starting at 200 uM. A maximum and minimum signal for the assay was determined on each plate. The percent inhibition of a test compound was calculated according to the formula
For a series of test concentrations, the IC50 was derived by graphing percent inhibition against the log of the concentrations tested for a given compound. For those compounds without an IC50, the percent inhibition results are shown at a test concentration of 2 μM.

Assay [4] concerns the target T4, Aurora-A (Mus musculus, UniProt P97477).
T4 construct: followed by the full length protein encoding the murine Aurora-A; polyhistidine (N); made in house; host or cells: sf9 insect cells
T4 sequence (P97477 1-395): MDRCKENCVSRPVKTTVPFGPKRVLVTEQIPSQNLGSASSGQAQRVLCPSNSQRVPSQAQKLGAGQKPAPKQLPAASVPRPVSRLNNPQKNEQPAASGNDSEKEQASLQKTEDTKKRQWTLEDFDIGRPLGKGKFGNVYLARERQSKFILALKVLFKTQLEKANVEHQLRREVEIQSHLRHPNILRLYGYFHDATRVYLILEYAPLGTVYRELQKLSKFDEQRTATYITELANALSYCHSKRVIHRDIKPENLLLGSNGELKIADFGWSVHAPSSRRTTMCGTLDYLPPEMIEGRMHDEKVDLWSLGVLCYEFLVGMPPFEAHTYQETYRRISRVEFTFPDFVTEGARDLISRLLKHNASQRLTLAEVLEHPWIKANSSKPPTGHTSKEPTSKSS
The assay can be described thus: Aurora-A Screening Assay. Type of assay: biochemical, murine. The conditions noted are these: for inhibition at 1 µM: test concentration of 1 μM, read-out: Aurora-A percent inhibition. The protocol:
as §1, §2
Aurora-A is a fusion protein containing a polyhistidine tag at the N terminus followed by the full length protein encoding the murine Aurora-A (Accession number GB BC014711) expressed and purified from sf9 insect cells. The assay used 400 ng of the N-terminal biotinylated peptide biotin-GRTGRRNSI-amide (Aurora-A) per well.
as §3

T3 sequence (P00533 669-1210 limits assumed): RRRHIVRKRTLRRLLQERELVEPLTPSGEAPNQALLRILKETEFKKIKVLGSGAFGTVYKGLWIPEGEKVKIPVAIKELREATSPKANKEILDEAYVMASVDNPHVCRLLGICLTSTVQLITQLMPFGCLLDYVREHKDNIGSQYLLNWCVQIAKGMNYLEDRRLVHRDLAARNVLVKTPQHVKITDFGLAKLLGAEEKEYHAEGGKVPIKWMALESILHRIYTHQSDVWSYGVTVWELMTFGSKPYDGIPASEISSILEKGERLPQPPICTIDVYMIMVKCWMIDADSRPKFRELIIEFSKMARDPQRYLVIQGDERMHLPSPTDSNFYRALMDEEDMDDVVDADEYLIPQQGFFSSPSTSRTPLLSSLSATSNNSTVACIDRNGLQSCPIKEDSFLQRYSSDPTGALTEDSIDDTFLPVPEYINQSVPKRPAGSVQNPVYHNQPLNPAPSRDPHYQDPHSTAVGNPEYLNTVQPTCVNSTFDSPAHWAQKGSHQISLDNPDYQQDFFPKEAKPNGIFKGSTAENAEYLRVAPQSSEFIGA
T2 sequence (P04626 679-1255): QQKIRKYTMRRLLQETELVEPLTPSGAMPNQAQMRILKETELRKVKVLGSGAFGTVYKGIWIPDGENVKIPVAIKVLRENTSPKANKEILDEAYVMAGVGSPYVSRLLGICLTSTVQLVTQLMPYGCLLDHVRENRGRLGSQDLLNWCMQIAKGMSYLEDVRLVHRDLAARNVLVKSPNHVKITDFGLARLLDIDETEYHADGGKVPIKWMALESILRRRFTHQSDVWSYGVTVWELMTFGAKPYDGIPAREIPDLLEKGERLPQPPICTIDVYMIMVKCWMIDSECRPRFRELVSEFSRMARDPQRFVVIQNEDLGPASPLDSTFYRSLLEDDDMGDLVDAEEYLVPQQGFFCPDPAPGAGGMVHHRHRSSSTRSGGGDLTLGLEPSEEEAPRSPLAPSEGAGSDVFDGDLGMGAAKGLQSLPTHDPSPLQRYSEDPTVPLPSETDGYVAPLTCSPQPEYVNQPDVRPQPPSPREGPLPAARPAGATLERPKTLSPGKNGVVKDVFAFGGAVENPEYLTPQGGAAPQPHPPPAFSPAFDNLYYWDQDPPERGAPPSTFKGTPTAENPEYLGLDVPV
T1 sequence (O08775 786-1343): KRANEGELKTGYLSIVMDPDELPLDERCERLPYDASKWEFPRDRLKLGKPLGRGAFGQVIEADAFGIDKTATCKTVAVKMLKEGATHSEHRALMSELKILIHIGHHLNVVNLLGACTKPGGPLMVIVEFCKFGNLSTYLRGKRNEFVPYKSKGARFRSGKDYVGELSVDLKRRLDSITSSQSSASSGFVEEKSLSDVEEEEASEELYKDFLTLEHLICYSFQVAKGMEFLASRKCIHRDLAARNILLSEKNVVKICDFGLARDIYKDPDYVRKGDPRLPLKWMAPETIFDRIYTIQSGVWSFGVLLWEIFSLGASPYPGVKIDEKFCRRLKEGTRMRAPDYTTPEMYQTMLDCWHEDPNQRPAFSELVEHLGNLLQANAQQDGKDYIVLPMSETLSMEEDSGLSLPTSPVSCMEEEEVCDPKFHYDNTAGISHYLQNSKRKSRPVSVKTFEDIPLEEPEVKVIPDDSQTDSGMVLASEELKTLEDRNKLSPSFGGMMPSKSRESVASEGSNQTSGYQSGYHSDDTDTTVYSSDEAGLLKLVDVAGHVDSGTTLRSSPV

As a reminder, the inhibition is the percentage by which the read-out fell short of the control. A word on the IC50: it is the concentration at which inhibition is half-maximal. With `COc1cc(NC(=O)c2sc3ncc(C#N)c4c3c2NC(=O)N4c2c(Cl)ccc3c2OCO3)ccc1OCCN1CCCCC1` [Cpd 31, 5-(5-chloro-benzo[1,3]dioxol-4-yl)-6-cyano-4-oxo-4,5-dihydro-3H-1-thia-3,5,8-triaza-acenaphthylene-2-carboxylic acid [3-methoxy-4-(2-piperidin-1-yl-ethoxy)-phenyl]-amide], the results for the inhibition at 1 µM in assay [1], in assay [2] and in assay [4] were 17%, 35% and 22%, respectively. Besides, in assay [3], the IC50 worked out at 513 nM.

In turn, `N#Cc1cnc2sc(C(=O)N3CCCC(CO)C3)c3c2c1N(c1c(Cl)ccc2c1OCO2)C(=O)N3` (centres unmarked) [Cpd 21, 5-(5-chloro-benzo[1,3]dioxol-4-yl)-2-(3-hydroxymethyl-piperidine-1-carbonyl)-4-oxo-4,5-dihydro-3H-1-thia-3,5,8-triaza-acenaphthylene-6-carbonitrile] yielded a half-maximal inhibitory concentration (IC50) in assay [1] of over 100000 nM. The inhibition at 1 µM was found to be 13% in assay [2] and 3% in assay [4]. Also, the inhibition at 2 µM in assay [3] is 32%.

For the molecule `N#Cc1cnc2sc(C(=O)Nc3ccc(CN4CCC(N)CC4)cc3)c3c2c1N(c1c(Cl)ccc2c1OCO2)C(=O)N3` [Cpd 47, 5-(5-chloro-benzo[1,3]dioxol-4-yl)-6-cyano-4-oxo-4,5-dihydro-3H-1-thia-3,5,8-triaza-acenaphthylene-2-carboxylic acid [4-(4-amino-piperidin-1-ylmethyl)-phenyl]-amide], the IC50 was over 100000 nM in assay [1], 1870 nM in assay [2], 514 nM in assay [3] and over 100000 nM in assay [4].

For `N#Cc1cnc2sc(C(=O)N3CCC(O)CC3)c3c2c1N(c1c(Cl)ccc2c1OCO2)C(=O)N3` [Cpd 28, 5-(5-chloro-benzo[1,3]dioxol-4-yl)-2-(4-hydroxy-piperidine-1-carbonyl)-4-oxo-4,5-dihydro-3H-1-thia-3,5,8-triaza-acenaphthylene-6-carbonitrile], the figures for the inhibition at 1 µM in assay [1], in assay [2] and in assay [4] were 15%, 35% and 25%, respectively. Further, the inhibition at 2 µM in assay [3] stood at 9%.

Take `N#Cc1cnc2sc(C(=O)Nc3ccc(CN4CCOCC4)cc3)c3c2c1N(c1ccc(Oc2ccccc2)cc1)C(=O)N3` [Cpd 50, 6-cyano-4-oxo-5-(4-phenoxy-phenyl)-4,5-dihydro-3H-1-thia-3,5,8-triaza-acenaphthylene-2-carboxylic acid (4-morpholin-4-ylmethyl-phenyl)-amide]: the IC50 in assay [1] was over 10000 nM; in assay [2], 2200 nM; in assay [3] it was 124 nM; in assay [4] it was over 100000 nM.

With `COC1CCN(Cc2ccc(NC(=O)c3sc4ncc(C#N)c5c4c3NC(=O)N5c3ccc(Oc4ccccc4)cc3)cc2)CC1` [Cpd 51, 6-cyano-4-oxo-5-(4-phenoxy-phenyl)-4,5-dihydro-3H-1-thia-3,5,8-triaza-acenaphthylene-2-carboxylic acid [4-(4-methoxy-piperidin-1-ylmethyl)-phenyl]-amide], the IC50 in assay [1] was over 100000 nM; in assay [2], over 10000 nM; in assay [4], over 100000 nM. Moreover, the inhibition at 2 µM in assay [3] turned out to be 48%.

Regarding `N#Cc1cnc2sc(C(=O)Nc3ccc(CN4CCC(O)CC4)cc3)c3c2c1N(c1c(Cl)ccc2c1OCO2)C(=O)N3` [Cpd 23, 5-(5-chloro-benzo[1,3]dioxol-4-yl)-6-cyano-4-oxo-4,5-dihydro-3H-1-thia-3,5,8-triaza-acenaphthylene-2-carboxylic acid [4-(4-hydroxy-piperidin-1-ylmethyl)-phenyl]-amide], the results for the inhibition at 1 µM in assay [1], in assay [2] and in assay [4] were 28%, 44% and 16%, respectively. In assay [3], inhibition was half-maximal at 598 nM (IC50).

With `N#Cc1cnc2sc(C(=O)Nc3ccc(CN4CCC(F)CC4)cc3)c3c2c1N(c1c(Cl)ccc2c1OCO2)C(=O)N3` [Cpd 26, 5-(5-chloro-benzo[1,3]dioxol-4-yl)-6-cyano-4-oxo-4,5-dihydro-3H-1-thia-3,5,8-triaza-acenaphthylene-2-carboxylic acid [4-(4-fluoro-piperidin-1-ylmethyl)-phenyl]-amide], the inhibition at 1 µM in assay [1] was 11%; in assay [4], 23%. Besides, the IC50 in assay [2] is over 1000 nM; in assay [3] it was 2020 nM.
